The source of these data is patent US20260022142A1, “MACROCYCLIC IMMUNOMODULATORS” (Bristol-Myers Squibb Company, priority 2022, published 2026).

The term IC50 denotes the point on the concentration scale where inhibition reaches its midpoint.

Molecules are shown by their SMILES. Numbered stars: 1 amine (or outer) side, 2 acyl side, 3 side chain; on linkers, the order of the positions; unused ones are H or OH. Bridge positions count the residues as written; N and C are the ends. Square brackets hold non-standard residues; d marks the D form. Peptide text beside a SMILES is read from it. * marks the point of attachment. ξ: configuration not given here. X3 = CC(C)(F)C(=N)NCCC[C@H](N[*:1])C(=O)[*:2]; X7 = N=C(NCCC[C@H](N[*:1])C(=O)[*:2])C1CC1; Bip = N[C@@H](Cc1ccc(-c2ccccc2)cc1)C(=O)O; Phe(3-Me) = Cc1cccc(C[C@H](N)C(=O)O)c1; Cyclopropanecarbonyl = O=C(C1CC1)*; Lys(Me2) = CN(C)CCCC[C@H](N)C(=O)O; Pyrazinecarbonyl = O=C(c1cnccn1)*; hArg = N=C(N)NCCCC[C@H](N)C(=O)O; Cha = N[C@@H](CC1CCCCC1)C(=O)O; Cit = NC(=O)NCCC[C@H](N)C(=O)O; Thr(3ξ) = CC(O)[C@H](N)C(=O)O; 12Ado = NCCCCCCCCCCCC(=O)O; hSer = N[C@@H](CCO)C(=O)O; Carboxymethyl = O=C(O)C*; Orn = NCCC[C@H](N)C(=O)O; Aun = NCCCCCCCCCCC(=O)O; Dab = NCC[C@H](N)C(=O)O

For this test, the target named is T1, PD-1/PD-L1 interaction (PE-labeled human PD-L1-Ig binding to Jurkat cell line over-expressing human PD-1) (Homo sapiens, UniProt Q15116).
T1 construct: expressed in transfected cells; host or cells: Jurkat
T1 sequence (Q15116 25-288): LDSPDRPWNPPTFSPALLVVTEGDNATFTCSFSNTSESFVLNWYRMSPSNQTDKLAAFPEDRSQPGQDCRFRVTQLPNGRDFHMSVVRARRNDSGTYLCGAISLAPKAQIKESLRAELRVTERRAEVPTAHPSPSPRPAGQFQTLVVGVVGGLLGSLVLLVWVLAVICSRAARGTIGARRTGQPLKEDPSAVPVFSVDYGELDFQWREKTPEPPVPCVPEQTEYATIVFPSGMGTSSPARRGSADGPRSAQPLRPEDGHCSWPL
The test can be described thus: Jurkat-PD-1 Cell Binding High-Content Screening Assay (CBA). Type of test: cell-based. As to conditions: Jurkat cell line over-expressing human PD-1; PE-labeled PD-L1-Ig 20 nM final; read-out: Jurkat hPD1-PDL1 IC50. An outline of the steps: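 Jurkat-hPD-1 cells, DMEM/10% FCS; cpd 2 h 37° C; PE-PD-L1-Ig 20 nM final, 1 h; 4% PFA fix + Hoechst 33342, 3× dPBS wash; high-content imaging read-out.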
Take `Cc1cccc(C[C@@H]2NC(=O)[C@H](CC(=O)O)NC(=O)[C@H](Cc3ccc(OCC(=O)O)cc3)NC(=O)[C@H](CCCCNC(=N)N)NC(=O)CSC[C@@H](C(=O)N[C@@H](CCN)C(=O)N[C@@H](CO)C(=O)NCCCCCCCCCCCC(=O)O)NC(=O)[C@H](CO)NC(=O)[C@H](C(C)C)NC(=O)[C@H](CC3CCCCC3)NC(=O)[C@H](CCN)NC(=O)[C@@H](CC(C)C)NC(=O)[C@H](CCCN)NC(=O)[C@H](CCCNC(=N)N)NC(=O)[C@H](Cc3ccc(-c4ccccc4)cc3)NC(=O)[C@H](C(C)C)NC2=O)c1` [Compound 3571] ({CH2CO}-[hArg]Y(Carboxymethyl)D[Phe(3-Me)]V[Bip]R[Orn][dL][Dab][Cha]VSC[Dab]S[12Ado]-OH; thioether N-14): the IC50 worked out at 0.0169 µM.

As for `Cc1cccc(C[C@@H]2NC(=O)[C@H](CC(=O)O)NC(=O)[C@H](Cc3ccc(OCC(=O)O)cc3)NC(=O)[C@H](CCCNC(=O)C3CC3)NC(=O)CSC[C@@H](C(=O)N[C@@H](CCCN)C(=O)N[C@@H](CO)C(=O)NCCCCCCCCCCCC(=O)O)NC(=O)[C@H](C(C)O)NC(=O)[C@H](C(C)C)NC(=O)[C@H](CC3CCCCC3)NC(=O)[C@H](CCN)NC(=O)[C@@H](CC(C)C)NC(=O)[C@H](CCCN)NC(=O)[C@H](CCCNC(=N)N)NC(=O)[C@H](Cc3ccc(-c4ccccc4)cc3)NC(=O)[C@H](C(C)C)NC2=O)c1` (stereo partly drawn) [Compound 3572] ({CH2CO}-[Orn](Cyclopropanecarbonyl)Y(Carboxymethyl)D[Phe(3-Me)]V[Bip]R[Orn][dL][Dab][Cha]V[Thr(3ξ)]C[Orn]S[12Ado]-OH; thioether N-14), the IC50 was determined as 0.0261 µM.

Regarding `Cc1cccc(C[C@@H]2NC(=O)[C@H](CC(=O)O)NC(=O)[C@H](Cc3ccc(OCC(=O)O)cc3)NC(=O)[C@H](CCCCNC(=N)N)NC(=O)CSC[C@@H](C(=O)N[C@@H](CCCN)C(=O)N[C@@H](CO)C(=O)NCCCCCCCCCCCC(=O)O)NC(=O)[C@H](C(C)O)NC(=O)[C@H](CCO)NC(=O)[C@H](CC3CCCCC3)NC(=O)[C@H](CCN)NC(=O)[C@@H](CC(C)C)NC(=O)[C@H](CCCN)NC(=O)[C@H](CCCNC(=N)N)NC(=O)[C@H](Cc3ccc(-c4ccccc4)cc3)NC(=O)[C@H](C(C)C)NC2=O)c1` (stereo partly drawn) [Compound 3574] ({CH2CO}-[hArg]Y(Carboxymethyl)D[Phe(3-Me)]V[Bip]R[Orn][dL][Dab][Cha][hSer][Thr(3ξ)]C[Orn]S[12Ado]-OH; thioether N-14), the IC50 was found to be 0.027 µM.

For the compound `Cc1cccc(C[C@@H]2NC(=O)[C@H](CC(=O)O)NC(=O)[C@H](Cc3ccc(OCC(=O)O)cc3)NC(=O)[C@H](CCCCNC(=N)N)NC(=O)CSC[C@@H](C(=O)N[C@@H](CCCN)C(=O)N[C@@H](CO)C(=O)NCCCCCCCCCCCC(=O)O)NC(=O)[C@H](C(C)O)NC(=O)[C@H](C(C)C)NC(=O)[C@H](CC3CCCCC3)NC(=O)[C@H](CCN)NC(=O)[C@@H](CC(C)C)NC(=O)[C@H](CCCN)NC(=O)[C@H](CCCNC(=N)N)NC(=O)[C@H](Cc3ccc(-c4ccccc4)cc3)NC(=O)[C@H](C(C)C)NC2=O)c1` (stereo partly drawn) [Compound 3575] ({CH2CO}-[hArg]Y(Carboxymethyl)D[Phe(3-Me)]V[Bip]R[Orn][dL][Dab][Cha]V[Thr(3ξ)]C[Orn]S[12Ado]-OH; thioether N-14), the IC50 was determined as 0.0323 µM.

`Cc1cccc(C[C@@H]2NC(=O)[C@H](CC(=O)O)NC(=O)[C@H](Cc3ccc(OCC(=O)O)cc3)NC(=O)[C@H](CCCCNC(=N)N)NC(=O)CSC[C@@H](C(=O)N[C@@H](CCCN)C(=O)N[C@@H](CO)C(=O)NCCCCCCCCCCCC(=O)O)NC(=O)[C@H](CO)NC(=O)[C@H](C(C)C)NC(=O)[C@H](CC3CCCCC3)NC(=O)[C@H](CCN)NC(=O)[C@@H](CC(C)C)NC(=O)[C@H](CCCN)NC(=O)[C@H](CCCNC(=N)N)NC(=O)[C@H](Cc3ccc(-c4ccccc4)cc3)NC(=O)[C@H](C(C)C)NC2=O)c1` [Compound 3576] ({CH2CO}-[hArg]Y(Carboxymethyl)D[Phe(3-Me)]V[Bip]R[Orn][dL][Dab][Cha]VSC[Orn]S[12Ado]-OH; thioether N-14): the IC50 is 0.0173 µM.

`CC(=O)NCCCC[C@@H]1NC(=O)CSC[C@@H](C(=O)N[C@@H](CCCN)C(=O)N[C@@H](CO)C(=O)NCCCCCCCCCCCC(=O)O)NC(=O)[C@H](CO)NC(=O)[C@H](C(C)C)NC(=O)[C@H](CC2CCCCC2)NC(=O)[C@H](CCCNC(=N)N)NC(=O)[C@@H](CC(C)C)NC(=O)[C@H](CCCN)NC(=O)[C@H](CCCNC(=N)N)NC(=O)[C@H](Cc2ccc(-c3ccccc3)cc2)NC(=O)[C@H](C(C)C)NC(=O)[C@H](Cc2cccc(C)c2)NC(=O)[C@H](CC(=O)O)NC(=O)[C@H](Cc2ccc(OCC(=O)O)cc2)NC1=O` [Compound 3577] ({CH2CO}-K(Ac)Y(Carboxymethyl)D[Phe(3-Me)]V[Bip]R[Orn][dL]R[Cha]VSC[Orn]S[12Ado]-OH; thioether N-14): the IC50 was 0.0311 µM.

`Cc1cccc(C[C@@H]2NC(=O)[C@H](CC(=O)O)NC(=O)[C@H](Cc3ccc(OCC(=O)O)cc3)NC(=O)[C@H](CCCCNC(=N)N)NC(=O)CSC[C@@H](C(=O)N[C@@H](CCCN)C(=O)N[C@@H](CO)C(=O)NCCCCCCCCCCCC(=O)O)NC(=O)[C@H](CO)NC(=O)[C@H](C(C)C)NC(=O)[C@H](CC3CCCCC3)NC(=O)[C@H](CCN)NC(=O)[C@@H](CC(C)C)NC(=O)[C@H](CCCNC(=N)N)NC(=O)[C@H](CCCNC(=N)C3CC3)NC(=O)[C@H](Cc3ccc(-c4ccccc4)cc3)NC(=O)[C@H](C(C)C)NC2=O)c1` [Compound 3578] ({CH2CO}-[hArg]Y(Carboxymethyl)D[Phe(3-Me)]V[Bip][X7]R[dL][Dab][Cha]VSC[Orn]S[12Ado]-OH; thioether N-14): the IC50 was 0.0215 µM.

Turning to `Cc1cccc(C[C@@H]2NC(=O)[C@H](CC(=O)O)NC(=O)[C@H](Cc3ccc(OCC(=O)O)cc3)NC(=O)[C@H](CCCCNC(=N)N)NC(=O)CSC[C@@H](C(=O)N[C@@H](CCN)C(=O)NCCCCCCCCCCC(=O)O)NC(=O)[C@H](C(C)O)NC(=O)[C@H](C(C)C)NC(=O)[C@H](CC3CCCCC3)NC(=O)[C@H](CCN)NC(=O)[C@@H](CC(C)C)NC(=O)[C@H](CCCN)NC(=O)[C@H](CCCNC(=N)C(C)(C)F)NC(=O)[C@H](Cc3ccc(-c4ccccc4)cc3)NC(=O)[C@H](Cc3ccc(O)cc3)NC2=O)c1` (stereo partly drawn) [Compound 3579] ({CH2CO}-[hArg]Y(Carboxymethyl)D[Phe(3-Me)]Y[Bip][X3][Orn][dL][Dab][Cha]V[Thr(3ξ)]C[Dab][Aun]-OH; thioether N-14), the IC50 was found to be 0.0182 µM.

With `CC(=O)NCCCC[C@@H]1NC(=O)[C@H](Cc2ccc(-c3ccccc3)cc2)NC(=O)[C@H](C(C)C)NC(=O)[C@H](Cc2cccc(C)c2)NC(=O)[C@H](CC(=O)O)NC(=O)[C@H](Cc2ccc(OCC(=O)O)cc2)NC(=O)[C@H](CCCCNC(=N)N)NC(=O)CSC[C@@H](C(=O)N[C@@H](CCN)C(=O)NCCCCCCCCCCC(=O)O)NC(=O)[C@H](C(C)O)NC(=O)[C@H](C(C)C)NC(=O)[C@H](CC2CCCCC2)NC(=O)[C@H](CCN)NC(=O)[C@@H](CC(C)C)NC(=O)[C@H](CCCN)NC1=O` (stereo partly drawn) [Compound 3580] ({CH2CO}-[hArg]Y(Carboxymethyl)D[Phe(3-Me)]V[Bip]K(Ac)[Orn][dL][Dab][Cha]V[Thr(3ξ)]C[Dab][Aun]-OH; thioether N-14), the IC50 amounted to 0.0168 µM.

As to `Cc1cccc(C[C@@H]2NC(=O)[C@H](CC(=O)O)NC(=O)[C@H](Cc3ccc(OCC(=O)O)cc3)NC(=O)[C@H](CCCCNC(=N)N)NC(=O)CSC[C@@H](C(=O)N[C@@H](CCN)C(=O)NCCCCCCCCCCC(=O)O)NC(=O)[C@H](C(C)O)NC(=O)[C@H](C(C)C)NC(=O)[C@H](CC3CCCCC3)NC(=O)[C@H](CCN)NC(=O)[C@@H](CC(C)C)NC(=O)[C@H](CCCN)NC(=O)[C@H](CCCNC(=O)C3CC3)NC(=O)[C@H](Cc3ccc(-c4ccccc4)cc3)NC(=O)[C@H](Cc3ccc(O)cc3)NC2=O)c1` (stereo partly drawn) [Compound 3581] ({CH2CO}-[hArg]Y(Carboxymethyl)D[Phe(3-Me)]Y[Bip][Orn](Cyclopropanecarbonyl)[Orn][dL][Dab][Cha]V[Thr(3ξ)]C[Dab][Aun]-OH; thioether N-14), the IC50 came out at 0.0162 µM.

For `Cc1cccc(C[C@@H]2NC(=O)[C@H](CC(=O)O)NC(=O)[C@H](Cc3ccc(OCC(=O)O)cc3)NC(=O)[C@H](CCCCN(C)C)NC(=O)CSC[C@@H](C(=O)N[C@@H](CCCN)C(=O)N[C@@H](CO)C(=O)NCCCCCCCCCCCC(=O)O)NC(=O)[C@H](C(C)O)NC(=O)[C@H](CCO)NC(=O)[C@H](CC3CCCCC3)NC(=O)[C@H](CCN)NC(=O)[C@@H](CC(C)C)NC(=O)[C@H](CCCN)NC(=O)[C@H](CCCNC(N)=O)NC(=O)[C@H](Cc3ccc(-c4ccccc4)cc3)NC(=O)[C@H](C(C)C)NC2=O)c1` (stereo partly drawn) [Compound 3582] ({CH2CO}-[Lys(Me2)]Y(Carboxymethyl)D[Phe(3-Me)]V[Bip][Cit][Orn][dL][Dab][Cha][hSer][Thr(3ξ)]C[Orn]S[12Ado]-OH; thioether N-14), the IC50 worked out at 0.071 µM.

Turning to `Cc1cccc(C[C@@H]2NC(=O)[C@H](CC(=O)O)NC(=O)[C@H](Cc3ccc(OCC(=O)O)cc3)NC(=O)[C@H](CCCNC(=O)c3cnccn3)NC(=O)CSC[C@@H](C(=O)N[C@@H](CCCN)C(=O)N[C@@H](CO)C(=O)NCCCCCCCCCCCC(=O)O)NC(=O)[C@H](C(C)O)NC(=O)[C@H](CCO)NC(=O)[C@H](CC3CCCCC3)NC(=O)[C@H](CCN)NC(=O)[C@@H](CC(C)C)NC(=O)[C@H](CCCN)NC(=O)[C@H](CCCNC(N)=O)NC(=O)[C@H](Cc3ccc(-c4ccccc4)cc3)NC(=O)[C@H](C(C)C)NC2=O)c1` (stereo partly drawn) [Compound 3583] ({CH2CO}-[Orn](Pyrazinecarbonyl)Y(Carboxymethyl)D[Phe(3-Me)]V[Bip][Cit][Orn][dL][Dab][Cha][hSer][Thr(3ξ)]C[Orn]S[12Ado]-OH; thioether N-14), the IC50 worked out at 0.0205 µM.
